These results are taken from patent US20230172825A1, “COMPOSITION FOR IMPROVING SKIN COMPRISING AMINO ACID COMPLEX AS ACTIVE INGREDIENT” (NATURE IN LAB. INC., priority 2021, published 2023).

Assay type in all cases: cell-based, human
One experiment concerns MMP-1. The experiment is described as follows: Inhibition of MMP-1 gene expression in UVA-damaged cells (real-time PCR). The conditions noted are these: UVA-irradiated CCD-1064Sk, 24 hours, concentration 1 µg/mℓ; UVA alone 100.0, control group 50.5. (In qPCR the cycle at which signal appears reflects the starting amount.)
Another experiment has as its system collagen type III. Put plainly: Gene expression of collagen type III (real-time PCR). The settings on record: CCD-1064Sk, 24 hours, concentration 100 µg/mℓ; control group 100.0.
The next experiment has as its system collagen type I. The experiment is described as follows: Gene expression of collagen type I (real-time PCR). The settings on record: CCD-1064Sk, 24 hours, concentration 100 µg/mℓ; control group 100.0.

Procedure for MMP-1: Human dermal fibroblasts (CCD-1064Sk, ATCC® CRL-2076™) were inoculated into a 60-mm dish using IMDM (Welgene, Korea) and cultured for 24 hours, followed by UVA irradiation. Afterwards, the medium was replaced with fresh serum-free IMDM, and samples were each treated at different concentrations and cultured for 24 hours at 37° C. in a 5 % CO2 incubator. After removal of the medium, the cells were collected by using QIAzol™ Lysis Reagent (Qiagen), and RNA thereof was isolated according to the protocol of the manufacturer. After quantifying the isolated RNA, cDNA was synthesized with 1 µg of RNA, followed by Real-time PCR (Applied Biosystems, 7500 FAST Real-Time PCR System).
Procedure for collagen type III: Human dermal fibroblasts (CCD-1064Sk, ATCC® CRL-2076™) were inoculated into a 60 mm dish using IMDM (Welgene, Korea), cultured for 24 hours, and then replaced with fresh serum-free IMDM. […] After removal of the medium, the cells were collected by using QIAzol™ Lysis Reagent (Qiagen), and RNA thereof was isolated according to the protocol of the manufacturer. After quantifying the isolated RNA, cDNA was synthesized with 1 µg of RNA, followed by Real-time PCR (Applied Biosystems, 7500 FAST Real-Time PCR System).

Consider `O=C(O[C@@H]1Cc2c(O)cc(O)cc2O[C@@H]1c1cc(O)c(O)c(O)c1)c1cc(O)c(O)c(O)c1` [EGCG], for which, in the experiment with MMP-1, the “Mean (gene expression of MMP-1)” value is listed as 56.7.

For `O=C1O[C@H]([C@@H](O)CO)C(O)=C1O` [Vitamin C, vitamin C], the “Mean (gene expression of collagen type III)” value with collagen type III was 135.6. In the experiment on collagen type I, the “Mean (gene expression of collagen type I)” value was found to be 134.2.
